From the NIST ThermoML archive (doi:10.1021/je100256w)
Numbers after ± are expanded uncertainties.

Assay: cn = amount concentration of the nth substance listed, in mol/dm3
Details: 101 kPa, Liquid, Dip Cell

O=C([O-])c1ccccc1O.[Na+] [sodium salicylate] + O
electrical conductivity [S/m]
Details	298 K	303 K	308 K	313 K
c1 = 3.09e-05	2.48e-05 ± 6.1e-07	2.4e-05 ± 6.2e-07	2.71e-05 ± 1.4e-06	3.69e-05 ± 2.2e-06
c1 = 6.1e-05	4.76e-05 ± 1.2e-06	4.74e-05 ± 1.2e-06	5.24e-05 ± 2.4e-06	6.8e-05 ± 3.4e-06
c1 = 9.04e-05	6.66e-05 ± 1.7e-06	6.95e-05 ± 1.9e-06	7.56e-05 ± 3.2e-06	9.61e-05 ± 4.6e-06
c1 = 0.000119	8.34e-05 ± 2.1e-06	8.73e-05 ± 2.5e-06	9.64e-05 ± 4.2e-06	0.000122 ± 6e-06
c1 = 0.000147	0.000102 ± 2.7e-06	0.000107 ± 3e-06	0.000118 ± 5.1e-06	0.000149 ± 7.1e-06
c1 = 0.0001744	0.000118 ± 3.2e-06	0.000125 ± 3.5e-06	0.000136 ± 5.8e-06	0.000173 ± 8.2e-06
c1 = 0.0002064	0.000135 ± 3.6e-06	0.000144 ± 4.1e-06	0.000157 ± 6.5e-06	0.000197 ± 8.7e-06
c1 = 0.0002376	0.000152 ± 4.3e-06	0.000163 ± 4.5e-06	0.000176 ± 6.2e-06	0.000208 ± 8.9e-06
c1 = 0.0002778	0.000173 ± 4.8e-06	0.000185 ± 5.2e-06	0.0002 ± 7.1e-06	0.000237 ± 9.3e-06
c1 = 0.0003166	0.000192 ± 5.3e-06	0.000203 ± 5.2e-06	0.000209 ± 7.9e-06	0.000264 ± 1.2e-05
c1 = 0.0003541	0.000204 ± 5.1e-06	0.00021 ± 5.5e-06	0.000228 ± 9.4e-06	0.000286 ± 1.4e-05
c1 = 0.0003903	0.00021 ± 5.8e-06	0.000227 ± 6.7e-06	0.000248 ± 1e-05	0.000309 ± 1.4e-05
c1 = 0.0004339	0.000226 ± 6.9e-06	0.000248 ± 7.4e-06	0.00027 ± 1e-05	0.000327 ± 1.5e-05
c1 = 0.0004757	0.000244 ± 7.5e-06	0.000266 ± 7.9e-06	0.00029 ± 1.2e-05	0.000363 ± 1.6e-05
c1 = 0.0005237	0.000261 ± 8.1e-06	0.000288 ± 8.7e-06	0.000315 ± 1.3e-05	0.000393 ± 1.8e-05
c1 = 0.0005695	0.000281 ± 8.7e-06	0.000307 ± 9.4e-06	0.000338 ± 1.4e-05	0.000419 ± 1.9e-05
c1 = 0.0006132	0.000297 ± 9.1e-06	0.000325 ± 9.8e-06	0.000357 ± 1.4e-05	0.000441 ± 2e-05
c1 = 0.000655	0.000311 ± 9.9e-06	0.000342 ± 1e-05	0.000373 ± 1.5e-05	0.000463 ± 2.1e-05
c1 = 0.0007014	0.000322 ± 1e-05	0.00036 ± 1.1e-05	0.000394 ± 1.6e-05	0.000486 ± 2.2e-05
c1 = 0.0007517	0.000344 ± 1.1e-05	0.000378 ± 1.1e-05	0.000412 ± 1.7e-05	0.000511 ± 2.3e-05
c1 = 0.0007993	0.00036 ± 1.1e-05	0.000395 ± 1.2e-05	0.000434 ± 1.7e-05	0.000533 ± 2.3e-05
c1 = 0.0008444	0.000373 ± 1.1e-05	0.000409 ± 1.3e-05	0.000457 ± 1.8e-05	0.000547 ± 2.3e-05
c1 = 0.0008974	0.000389 ± 1.2e-05	0.000422 ± 1.4e-05	0.000482 ± 1.9e-05	0.000572 ± 2.2e-05
c1 = 0.0009472	0.000401 ± 1.3e-05	0.000448 ± 1.5e-05	0.000502 ± 1.9e-05	0.000592 ± 2.3e-05
c1 = 0.001003	0.000417 ± 1.3e-05	0.000459 ± 1.6e-05	0.000527 ± 2e-05	0.000614 ± 2.3e-05
c1 = 0.001063	0.000433 ± 1.4e-05	0.000483 ± 1.6e-05	0.000551 ± 2e-05	0.000635 ± 2.3e-05
c1 = 0.001123	0.00045 ± 1.4e-05	0.000492 ± 1.6e-05	0.000561 ± 2.1e-05	0.000656 ± 2.5e-05
c1 = 0.001181	0.000464 ± 1.5e-05	0.000515 ± 1.8e-05	0.000594 ± 2.1e-05	0.000674 ± 2.3e-05
c1 = 0.001241	0.000474 ± 1.6e-05	0.000535 ± 1.9e-05	0.000613 ± 2.2e-05	0.000692 ± 2.3e-05
c1 = 0.001301	0.000494 ± 1.7e-05	0.000552 ± 1.9e-05	0.000631 ± 2.2e-05	0.000712 ± 2.4e-05
